In patent publication US11220690B2, “Formulation” (ATLANTIC PHARMACEUTICALS (HOLDINGS) LTD, priority 2017, dated 2022):

Experiments:
TLR9 [1] = target: T1, TLR9 (Homo sapiens, UniProt Q9NR96); test: Inhibition of TLR-9 activated by E. coli genomic DNA; format: cell-based; details: E. coli genomic DNA as activator of TLR-9
T1 sequence (Q9NR96 26-1032): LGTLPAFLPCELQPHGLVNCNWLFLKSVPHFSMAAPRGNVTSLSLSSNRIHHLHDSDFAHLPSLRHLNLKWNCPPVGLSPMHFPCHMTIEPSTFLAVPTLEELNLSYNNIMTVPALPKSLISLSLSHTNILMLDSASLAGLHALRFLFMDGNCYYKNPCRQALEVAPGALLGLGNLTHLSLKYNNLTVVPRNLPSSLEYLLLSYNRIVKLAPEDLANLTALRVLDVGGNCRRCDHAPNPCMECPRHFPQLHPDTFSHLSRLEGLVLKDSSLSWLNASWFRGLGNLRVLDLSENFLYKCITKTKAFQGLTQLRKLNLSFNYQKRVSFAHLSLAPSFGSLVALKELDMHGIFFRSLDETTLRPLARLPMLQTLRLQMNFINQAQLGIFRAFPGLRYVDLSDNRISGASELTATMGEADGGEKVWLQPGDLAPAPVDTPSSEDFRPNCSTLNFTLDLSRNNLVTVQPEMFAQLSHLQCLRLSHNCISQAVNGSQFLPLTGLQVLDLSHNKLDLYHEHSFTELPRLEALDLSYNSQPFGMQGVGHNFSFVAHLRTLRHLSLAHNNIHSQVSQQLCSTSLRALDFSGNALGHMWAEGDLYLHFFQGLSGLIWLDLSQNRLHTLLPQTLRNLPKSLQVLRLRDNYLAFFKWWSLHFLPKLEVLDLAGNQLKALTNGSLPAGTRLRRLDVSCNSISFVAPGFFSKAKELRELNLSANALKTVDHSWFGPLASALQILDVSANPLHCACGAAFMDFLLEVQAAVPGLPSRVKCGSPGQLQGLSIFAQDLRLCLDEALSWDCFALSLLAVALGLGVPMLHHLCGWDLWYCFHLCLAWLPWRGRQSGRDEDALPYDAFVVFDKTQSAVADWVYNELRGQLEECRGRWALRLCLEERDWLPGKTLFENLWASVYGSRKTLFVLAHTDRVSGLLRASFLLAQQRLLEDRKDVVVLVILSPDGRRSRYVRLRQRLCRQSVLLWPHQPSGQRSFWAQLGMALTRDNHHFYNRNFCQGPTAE
Excerpt: While the data of FIG. 4 indicate that SEQ ID NO:1 is more likely to form a homodimer than a heterodimer with ODN2006, additional experiments tested the antagonist activity of SEQ ID NO:1 in the presence of E. coli genomic DNA as the activator.

[2] = Circular Dichroism (CD) spectroscopy, thermal stability of secondary structure; format: physicochemical
Excerpt: SEQ ID NO:1 was therefore subjected to Circular Dichroism (CD) spectroscopy to gather information about the possible secondary structure. CD of DNA can be utilized to detect all 3 major forms of duplex structure (B, A and Z) and is sensitive to conditions that disrupt the structure such a heating. Of interest was the stability of any secondary structure detected at or above physiologic temperatures. Shown in FIG. 6 is the CD spectra of sample SEQ ID NO:1 in ddH20 at 4 C.
Additional thermal denaturation of the putative duplex was also studied in the presence of Na^+ at concentrations of 50 mM and 150 mM. Sodium fluoride was used as Cl^− ions interfere with the CD spectra in this UV region.
Additional experiments were conducted to test the influence of Mg^++ and polyamines on the stability of the structure.

pigmented C57BL/6N mice = test: Murine model of dry eye by scopolamine administration; format: in vivo, Mouse; details: for Corneal fluorescein staining score (mean ± SD): 5 μL in both eyes, one dose per day
Excerpt: In a model of mice, the application of transdermal scopolamine patches to the mid-tail is used to reduce aqueous tear production and thus mimic lacrimal gland insufficiency. The function of scopolamine is to induce a pharmacologic blockade of cholinergic receptors in the lacrimal gland and therefore to decrease aqueous production. The desiccation is amplified by adding environmental stress Animals are exposed to a low-humidity environment and constant airflow.
• Species: Mouse. • Strain: C57BL/6N (pigmented). • Age: Approximately 6-7 weeks (at the first day of induction). • Number/sex: 55 females (study 40; reserve 15).
Mice were treated with transdermal scopolamine administration (0.5 mg/72 h; Scopoderm TTS®). The transdermal scopolamine patch was wrapped near the tail base of the mouse, secured with cellophane tape. Patches were reapplied every 48 hours.
Mice were randomized into 4 groups of 10 animals. The study was divided into 2 experimental sets with 5 animals of each group represented.
All test items, control items and comparator item were instilled in both eyes (5 μL per administration), using a micropipette.
Tear production and corneal defects were assessed at baseline, on Days 3, 6 and 10 using phenol red thread (PRT) and corneal fluorescence staining (CFS), respectively, for each animal of the 4 groups.
A) Measurement of Aqueous Tear Production PRT Test. • Tear production was measured with the PRT test (Zone-Quick, FCI-Ophthalmics) on both eyes, before administration on Day 3 and at least one hour after the second treatment for the other days of the study. The thread was placed in the lateral cantus of the lateral conjunctival fornix for 30 seconds. The thread wet by tears would turn red, indicated aqueous tear production.
B) Corneal Fluorescein Staining (CFS) • At the different time points the measurement was performed before administration on Day 3 and at least one hour after the second treatment for the other days of the study. The eyes of the animals from all groups were examined by slit-lamp observation using blue light after 0.5% fluorescein eye drop instillation (0.5 μL). Punctuate staining was recorded with the standardized National Eye Institute (NEI) grading system giving a 0-3 score to each of the 5 areas in which the corneas were divided. Results: Animal Behaviour and Body Weights

TLR9 [3] = target: T1, TLR9; test: TLR9 activation (agonist) screen, TLR9/NF-kB luciferase reporter HEK 293 cell line; format: cell-based; set-up: host or cells: HEK 293 (TLR9/NF-kB luciferase reporter line); details: up to concentrations as high as 100 uM, 16 h treatment
Experimental: […] Briefly, the TLR9/NF-kB luciferase reporter HEK 293 cell line (Abeomics, San Diego, Calif.) was plated in 96-well white solid plates at 5×10^4 cells per well for 16 h. […] Luciferase activity was then measured and analyzed.

TLR9 [4] = target: T1, TLR9; test: Inhibition of TLR9-mediated NF-kB induction activated by CpG ODN2006, luciferase reporter HEK 293 cell line; format: cell-based; set-up: host or cells: HEK 293 (TLR9/NF-kB luciferase reporter line)
Experimental: SEQ ID NO:1 was next screened for dose responsive inhibition activity to determine the IC50 against TLR9-mediated NF-kB induction at seven different doses (0.1, 1, 5, 10, 25, 50 and 100 μM) in triplicate. Briefly, the TLR9/NF-kB luciferase reporter HEK 293 cell line was plated in 96-well white solid plates at 5×10^4 cells per well for 16 h. Cells were pretreated with different doses of SEQ ID NO:1 in triplicate for 1 h. Cells were then treated with 20 ug/ml of CpG ODN2006 to activate TLR9. After 16 h, luciferase activity was measured and analyzed.

Substance: alicaforsen (GCCCAAGCTGGCATCCGTCA; chemistry not given here; listed as Homo sapiens) [SEQ ID NO:1]
- antagonist activity in the presence of E. coli genomic DNA as the activator (TLR9 [1]): remained antagonistic
- intensity of the 190 nm peak after cooling back ([2]; 50 and 150 mM sodium, samples cooled back to 20° C. after heating): returned to pre-heated levels
- structure retained (intensity of the 190 nm peak) on heating ([2]; both 50 and 150 mM sodium (sodium fluoride), to 40° C.): at least 50%
- loss of signal strength of positive CD band at 190 nm ([2]; in ddH20, heating to 80° C.): > 85%
- effect of spermine on secondary structure (CD spectra) ([2]; spermine at 5 mM in the presence of 50 mM Na+): completely abolished the secondary structure
- Corneal fluorescein staining score (mean ± SD) (pigmented C57BL/6N mice; Day 6, alicaforsen 1 mM): 10.5 ± 2.6
- Corneal fluorescein staining score (mean ± SD) (pigmented C57BL/6N mice; Day 6, alicaforsen 10 mM): 10.8 ± 2.0
- Corneal fluorescein staining score (mean ± SD) (pigmented C57BL/6N mice; Day 10, alicaforsen 1 mM, listed as ALICAFORSEN): 9.3 ± 3.1
- Corneal fluorescein staining score (mean ± SD) (pigmented C57BL/6N mice; Day 10, alicaforsen 1 mM, listed as alicaforsen): lower than the Vehicle group
- Corneal fluorescein staining score (mean ± SD) (pigmented C57BL/6N mice; Day 10, alicaforsen 10 mM, listed as ALICAFORSEN): 9.7 ± 2.2
- Corneal fluorescein staining score (mean ± SD) (pigmented C57BL/6N mice; Day 10, alicaforsen 10 mM, listed as alicaforsen): lower than the Vehicle group
- clinical tolerability (pigmented C57BL/6N mice; multiple topical administrations, 1 mM and 10 mM): clinically well tolerated
- agonist activity (TLR9 activation) (TLR9 [3]): devoid of agonist activity
- TLR-9 antagonist activity (TLR9 [4]; ODN2006 as activator): antagonist of TLR-9
- concentrations required for TLR-9 antagonism compared with inhibition of ICAM-1 expression (TLR9 [4]; comparative dose responses, FIG. 3): requires higher concentrations than the inhibition of ICAM-1 expression
